The values below come from US20070155720A1, “Co-administration of dopamine-receptor binding compounds” (DarPharma, Inc., priority 2003, published 2007).

Structures can show the parent of a compound that is named as a salt. Where two headings read alike, the source gives them in different places.

One data set deals with dopamine D1 receptor (Homo sapiens, UniProt P21728). Kind of data set: D1 activity of hexahydrobenzo[a]phenanthridines, structure-activity statements. The settings on record: relative to dihydrexidine.
Sequence of dopamine D1 receptor (P21728 whole entry): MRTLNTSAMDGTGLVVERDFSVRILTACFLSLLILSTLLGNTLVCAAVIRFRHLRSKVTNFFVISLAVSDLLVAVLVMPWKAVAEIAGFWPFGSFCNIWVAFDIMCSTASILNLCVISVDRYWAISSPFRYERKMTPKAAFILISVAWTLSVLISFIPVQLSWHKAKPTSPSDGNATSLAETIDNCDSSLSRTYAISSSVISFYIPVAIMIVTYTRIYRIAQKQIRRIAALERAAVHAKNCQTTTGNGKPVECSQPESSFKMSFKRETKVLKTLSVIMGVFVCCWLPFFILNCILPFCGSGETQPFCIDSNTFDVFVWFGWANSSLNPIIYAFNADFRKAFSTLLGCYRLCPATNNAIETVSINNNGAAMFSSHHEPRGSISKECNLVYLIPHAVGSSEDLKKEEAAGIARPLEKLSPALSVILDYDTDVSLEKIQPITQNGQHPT
For another data set, the target named is D2 receptor (Homo sapiens, UniProt P14416). Kind of data set: D2 potency of substituted hexahydrobenzo[a]phenanthridines, structure-activity statement. The settings on record: relative to dihydrexidine.
Sequence of D2 receptor (P14416 whole entry): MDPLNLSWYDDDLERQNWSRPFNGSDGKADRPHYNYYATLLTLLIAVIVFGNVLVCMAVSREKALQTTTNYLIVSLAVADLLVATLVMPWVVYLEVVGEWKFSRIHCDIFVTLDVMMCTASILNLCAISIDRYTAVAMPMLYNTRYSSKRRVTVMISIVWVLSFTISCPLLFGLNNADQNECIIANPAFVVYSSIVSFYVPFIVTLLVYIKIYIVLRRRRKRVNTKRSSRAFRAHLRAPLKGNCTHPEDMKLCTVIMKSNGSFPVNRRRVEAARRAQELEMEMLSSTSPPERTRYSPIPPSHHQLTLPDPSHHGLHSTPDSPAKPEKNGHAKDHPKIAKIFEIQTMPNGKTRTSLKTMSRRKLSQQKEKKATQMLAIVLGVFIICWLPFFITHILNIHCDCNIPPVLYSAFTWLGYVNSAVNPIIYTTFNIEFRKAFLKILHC
A further data set addresses T1, D1 receptors (Rattus norvegicus, UniProt P18901).
T1 construct: utilizing rat brain striatal homogenates having D1 and D2 receptors; from tissue; host or cells: rat brain striatum homogenate
Kind of data set: Affinity for D1 receptors in rat brain striatal homogenates labeled with 3H-SCH 23390. Format: binding. The settings on record: for D1:D2 Selectivity: ratio of D2 to D1 affinity, rat striatal homogenates.

In the next data set the target is D1 receptor (Homo sapiens, UniProt P21728). Kind of data set: Affinity and selectivity for the D1 receptor stated in the description, no method given. It counts as binding. The settings on record: exemplary compounds, b98.
Sequence of D1 receptor (P21728 whole entry): as the sequence (P21728 whole entry) above
The target in data set [1] is T2, D4 receptor (Rattus norvegicus, UniProt P30729).
T2 sequence (P30729 1-387): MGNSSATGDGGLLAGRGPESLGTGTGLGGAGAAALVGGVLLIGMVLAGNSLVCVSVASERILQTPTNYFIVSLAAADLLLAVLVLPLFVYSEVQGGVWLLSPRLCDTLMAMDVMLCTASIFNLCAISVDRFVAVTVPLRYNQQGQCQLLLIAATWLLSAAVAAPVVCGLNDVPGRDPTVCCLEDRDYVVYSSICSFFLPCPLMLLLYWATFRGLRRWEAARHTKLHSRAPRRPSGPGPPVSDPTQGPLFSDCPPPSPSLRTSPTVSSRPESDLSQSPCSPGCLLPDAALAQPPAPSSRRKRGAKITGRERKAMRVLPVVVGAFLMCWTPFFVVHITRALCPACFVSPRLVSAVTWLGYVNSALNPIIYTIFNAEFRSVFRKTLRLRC
Kind of data set: Inhibition of forskolin-stimulated adenylate cyclase through D4 receptors in CHO cells. It counts as cell-based.

Data set [2] deals with T2, D4 receptor. Kind of data set: Binding, cloned D4 receptor in CHO cells. On the set-up: expressed in transfected cells; host or cells: CHO cells. The settings on record: read-out: Cloned Receptors D4 CHO (rat).
A further data set addresses D2L receptors (Homo sapiens, UniProt P14416). Kind of data set: Inhibition of forskolin-stimulated adenylate cyclase through D2L receptors in CHO cells. It counts as cell-based. The following applies: compared with quinpirole.
For data set [3], the system named is adenylate cyclase in rat brain striatum. Kind of data set: Activation of adenylate cyclase in rat brain striatum. The settings on record: compared with dopamine. It counts as biochemical.
Data set [4] is described as follows: Half-life and duration of functional activity. Format: in vivo.
In another data set the test system is monkeys. The settings on record: aged and reserpine-treated monkeys; cited from earlier work.
For data set [5], the system named is rats with scopolamine-induced deficits. Kind of data set: Passive avoidance in rats, scopolamine-induced amnesia. Format: in vivo, rat. The following applies: 3.0 mg/kg ip. On the procedure: The protocol summarized below is one of many variants of the passive avoidance procedure using scopolamine-induced amnesia (for review see Rush, Behav Neural Biol 50:255-274, 1988). This procedure is commonly used to identify drugs that may be useful in treating cognitive deficits, particularly those observed in AD. The effects of the D
Testing was conducted in standard 2-compartment rectangular passive avoidance chambers (San Diego Instruments, San Diego, Calif.) with black plexiglas sides and grid floors. The light compartment of the chambers were illuminated by a 20 W lamp located in this compartment; the dark side of the chambers will be shielded from light, except for light penetrating the opening connecting the two compartments of each chamber.
On training day, groups of 8 rats were injected with scopolamine (3.0 mg/kg, ip) or vehicle (1.0 ml/kg) 30 min prior to training. Scopolamine served as the dementing agent in this experiment. Ten min prior to training, each group of rats received a second injection of vehicle or a dose of DHX. At the end of the pretreatment interval, each rat was placed individually in the light compartment facing away from the opening between compartments. The latency for each rat to travel from the light to the dark compartment was measured up to a maximum of 300 sec; any animal not entering the dark compartment within 300 sec was discarded from the test group. Once the animal entered the dark compartment completely, a 1.0 milliampere, 3.0 sec scrambled shock was delivered to the entire grid floor. The animal was allowed to remain in the dark compartment during this 3.0 sec period or to escape to the light compartment. Each rat was then returned immediately to its home cage.
Twenty-four hr after training, each rat was tested in the same apparatus for retention of the task (to remain passively in the light compartment). […] The latency for animals to enter the dark compartment on test day (step-through latency) was recorded up to a maximum of 600 sec. Each animal was used only once in a single experiment.
A one-way analysis of variance (ANOVA) and Newman-Keuls post-hoc comparisons were used to identify significant deficits in passive avoidance responding produced by scopolamine and their reversal by DHX; a p value of less than 0.05 was used as the level of significance.

T1 sequence (P18901 whole entry): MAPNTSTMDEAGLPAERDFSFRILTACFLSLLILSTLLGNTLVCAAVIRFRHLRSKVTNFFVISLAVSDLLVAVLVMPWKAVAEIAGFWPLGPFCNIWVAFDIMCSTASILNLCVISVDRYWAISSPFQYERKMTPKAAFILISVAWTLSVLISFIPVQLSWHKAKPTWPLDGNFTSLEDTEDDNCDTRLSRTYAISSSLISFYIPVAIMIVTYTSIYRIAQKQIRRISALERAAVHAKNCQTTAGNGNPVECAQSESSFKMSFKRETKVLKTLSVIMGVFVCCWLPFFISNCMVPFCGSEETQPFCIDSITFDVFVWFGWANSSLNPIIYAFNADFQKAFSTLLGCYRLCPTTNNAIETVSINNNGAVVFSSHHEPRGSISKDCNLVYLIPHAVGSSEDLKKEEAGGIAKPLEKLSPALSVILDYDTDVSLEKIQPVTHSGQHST
Sequence of D2L receptors (P14416 whole entry): as the sequence (P14416 whole entry) above

On to `Oc1ccc2c(c1O)Cc1cccc3c1C2CNC3` (centres unmarked) (as salt: hydrobromid) [Compound 29, 8,9-Dihydroxy-2,3,7,11b-tetrahydro-1H-napth[1,2,3-de]isoquinoline], for which the melting point (commonly the temperature, or range, at which the solid turns liquid) was 258 °C (dec.).

As to `Cc1cccc2c1CN[C@H]1CCc3cc(O)c(O)cc3[C@H]21.Cl` (relative stereo), the melting point was 195 °C (dec.).

`Cc1ccc2c(c1)[C@H]1c3cc(O)c(O)cc3CC[C@@H]1NC2.Cl` (relative stereo) [Compound 6b, Trans-2-methyl-10,11-dihydroxy-5,6,6a,7,8,12b-hexahydrobenzo [a]phenanthridine hydrochloride]: the melting point is 190 °C (dec.). Also, the “D1 potency and efficacy” value at dopamine D1 receptor is “comparable to dihydrexidine”.

Turning to `Cc1ccc2c(c1)CN[C@H]1CCc3cc(O)c(O)cc3[C@H]21.Cl` (relative stereo) [Compound 6c, Trans-3-methyl-10,11-dihydroxy-5,6,6a,7,8,12b-hexahydrobenzo[a]phenanthridine hydrochloride], the melting point was 190 °C (dec.). In addition, at dopamine D1 receptor, the “D1 potency and efficacy” value is listed as “comparable to dihydrexidine”. At D2 receptor, the D2 potency entry was “greater D2 potency”. Besides, on D1 receptors, the Ki came to 0.007 µM and the “D1:D2 Selectivity” value stood at 6.

With `Cl.Oc1cc2c(cc1O)[C@@H]1c3cc(Cc4ccccc4)ccc3CN[C@H]1CC2` (relative stereo) [Compound 6e, Trans-2-benzyl-10,11-dihydroxy-5,6,6a,7,8,12b-hexahydrobenzo[a]phenanthridine hydrochloride], the Ki at D1 receptors (rat brain striatal homogenates, 3H-SCH 23390, read-out: D1 Affinity) turned out to be 0.29 µM. Also, the “D1:D2 Selectivity” value at D1 receptors came out at 0.6.

Regarding `Br.Oc1ccc2c(c1O)Oc1cccc3c1C2CNC3` (centres unmarked) [Compound 16a, 8,9-dihydroxy-1,2,3,11b-tetrahydrochromeno[4,3,2-de]isoquinoline hydrobromide], the melting point is 298 to 302 °C (dec.). For the same compound, the “D1:D2 selective” value at D1 receptor was “equally high affinity for both receptor subtypes”.

For `C=CCN1Cc2cccc3c2C(C1)c1ccc(O)c(O)c1O3` (centres unmarked) [Compound 16b, N-allyl-8,9-dihydroxy-1,2,3,11b-tetrahydrochromeno[4,3,2-de]isoquinoline], the melting point was 251 to 253 °C (dec.).

Take `CCCN1Cc2cccc3c2C(C1)c1ccc(O)c(O)c1O3` (centres unmarked) [Compound 16c, N-propyl-8,9-dihydroxy-1,2,3,11b-tetrahydrochromeno[4,3,2-de]isoquinoline]: the melting point was 259 to 264 °C (dec.).

Consider `Oc1ccc2c(c1O)Cc1cccc3c1C2CNC3` (centres unmarked) [Compound 29, 8,9-Dihydroxy-2,3,7,11b-tetrahydro-1H-napth[1,2,3-de]isoquinoline], for which the “Agonist activity for inhibition of cAMP synthesis at D4 receptors” value on D4 receptor [1] is “full agonist”. The 50% effective concentration (EC50) (commonly the midpoint of the concentration-response curve) at D4 receptor [1] (inhibition of forskolin-stimulated AC, mean ± SEM, at least three experiments, read-out: EC50 (nM) ± SEM, D4) was found to be 60 ± 18 nM. Moreover, the Ki at D4 receptor [2] is 0.06 µM. Also, the “Agonist activity for inhibition of cAMP synthesis at D2L receptors” value at D2L receptors is given as “full agonist”. Also, the “Effectiveness in activating adenylate cyclase” value in data set [3] was “as effective as dopamine”. The “Effectiveness in activating adenylate cyclase when receptor reserve is reduced” value in data set [3] (receptor reserve reduced) is on record as “as effective as dopamine”. In addition, the “Duration of functional activity” value in [4] (in vivo) was in the range of 7 to 10 h. For the same compound, the half-life (as a rule, the time needed for the level to fall by half in the phase considered) in [4] (serum, read-out: Serum half-life (converted)) was 3 h.

For `Oc1cc2c(cc1O)C(c1ccccc1)CNCC2` (centres unmarked) [SKF 38393, reference compound], the Spatial working memory result with monkeys is “improved spatial working memory”.

As for `CN1[C@@H]2C[C@@H](OC(=O)[C@H](CO)c3ccccc3)C[C@H]1[C@@H]1O[C@@H]12` [Scopolamine, reference compound], the “Acquisition of the passive avoidance task” value in data set [5] was “severe deficit”.

Consider `NCCc1ccc(O)c(O)c1` [dopamine], for which the half-maximal effective concentration (EC50) on D4 receptor [1] (read-out: EC50 (nM) ± SEM, D4, inhibition of forskolin-stimulated AC, mean ± SEM, at least three experiments) was 1750 ± 682 nM.
